Data taken from patent publication US12421225B2, “Heteroaromatic amide derivative and medicament containing the same” (KAKEN PHARMACEUTICAL CO., LTD., priority 2018, dated 2025).

Legend:
human Nav1.5 = human Nav1.5 (Homo sapiens (Human), UniProt Q14524); test: Human Nav1.5 inhibitory activity evaluation (automated patch clamp QPatch16X, HEK293 cells stably expressing human Nav1.5); assay type: cell-based; conditions: HEK293 cells stably expressing human Nav1.5, automated patch clamp QPatch16X
Outline: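 IC50 derived from concentration-response of inward current at the 20th of 20 action-potential-mimicking pulses (holding −80 mV, leak corrected with −100 mV step). HEK293 cells stably expressing human Nav1.5, room temperature, extracellular pH 7.4, intracellular CsF-based pH 7.3, 0.1% DMSO.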

human Nav1.7 = human Nav1.7 (Homo sapiens (Human), UniProt Q15858); test: Human Nav1.7 inhibitory activity evaluation (automated patch clamp QPatch16X, HEK293A cells stably expressing human Nav1.7 and human Navβ1); assay type: cell-based; conditions: HEK293A cells stably expressing human Nav1.7 and human Navβ1, automated patch clamp QPatch16X
Outline: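 IC50 calculated from the concentration-response of inward current evoked by the second −10 mV, 50 ms depolarisation, which follows a 15 s conditioning step at roughly 30-40% inactivation and a 100 ms −120 mV interval. Cells: HEK293A expressing human Nav1.7/Navβ1, automated patch clamp, room temperature, 0.1% DMSO final.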

human Nav1.5, sequence (Q14524 whole entry): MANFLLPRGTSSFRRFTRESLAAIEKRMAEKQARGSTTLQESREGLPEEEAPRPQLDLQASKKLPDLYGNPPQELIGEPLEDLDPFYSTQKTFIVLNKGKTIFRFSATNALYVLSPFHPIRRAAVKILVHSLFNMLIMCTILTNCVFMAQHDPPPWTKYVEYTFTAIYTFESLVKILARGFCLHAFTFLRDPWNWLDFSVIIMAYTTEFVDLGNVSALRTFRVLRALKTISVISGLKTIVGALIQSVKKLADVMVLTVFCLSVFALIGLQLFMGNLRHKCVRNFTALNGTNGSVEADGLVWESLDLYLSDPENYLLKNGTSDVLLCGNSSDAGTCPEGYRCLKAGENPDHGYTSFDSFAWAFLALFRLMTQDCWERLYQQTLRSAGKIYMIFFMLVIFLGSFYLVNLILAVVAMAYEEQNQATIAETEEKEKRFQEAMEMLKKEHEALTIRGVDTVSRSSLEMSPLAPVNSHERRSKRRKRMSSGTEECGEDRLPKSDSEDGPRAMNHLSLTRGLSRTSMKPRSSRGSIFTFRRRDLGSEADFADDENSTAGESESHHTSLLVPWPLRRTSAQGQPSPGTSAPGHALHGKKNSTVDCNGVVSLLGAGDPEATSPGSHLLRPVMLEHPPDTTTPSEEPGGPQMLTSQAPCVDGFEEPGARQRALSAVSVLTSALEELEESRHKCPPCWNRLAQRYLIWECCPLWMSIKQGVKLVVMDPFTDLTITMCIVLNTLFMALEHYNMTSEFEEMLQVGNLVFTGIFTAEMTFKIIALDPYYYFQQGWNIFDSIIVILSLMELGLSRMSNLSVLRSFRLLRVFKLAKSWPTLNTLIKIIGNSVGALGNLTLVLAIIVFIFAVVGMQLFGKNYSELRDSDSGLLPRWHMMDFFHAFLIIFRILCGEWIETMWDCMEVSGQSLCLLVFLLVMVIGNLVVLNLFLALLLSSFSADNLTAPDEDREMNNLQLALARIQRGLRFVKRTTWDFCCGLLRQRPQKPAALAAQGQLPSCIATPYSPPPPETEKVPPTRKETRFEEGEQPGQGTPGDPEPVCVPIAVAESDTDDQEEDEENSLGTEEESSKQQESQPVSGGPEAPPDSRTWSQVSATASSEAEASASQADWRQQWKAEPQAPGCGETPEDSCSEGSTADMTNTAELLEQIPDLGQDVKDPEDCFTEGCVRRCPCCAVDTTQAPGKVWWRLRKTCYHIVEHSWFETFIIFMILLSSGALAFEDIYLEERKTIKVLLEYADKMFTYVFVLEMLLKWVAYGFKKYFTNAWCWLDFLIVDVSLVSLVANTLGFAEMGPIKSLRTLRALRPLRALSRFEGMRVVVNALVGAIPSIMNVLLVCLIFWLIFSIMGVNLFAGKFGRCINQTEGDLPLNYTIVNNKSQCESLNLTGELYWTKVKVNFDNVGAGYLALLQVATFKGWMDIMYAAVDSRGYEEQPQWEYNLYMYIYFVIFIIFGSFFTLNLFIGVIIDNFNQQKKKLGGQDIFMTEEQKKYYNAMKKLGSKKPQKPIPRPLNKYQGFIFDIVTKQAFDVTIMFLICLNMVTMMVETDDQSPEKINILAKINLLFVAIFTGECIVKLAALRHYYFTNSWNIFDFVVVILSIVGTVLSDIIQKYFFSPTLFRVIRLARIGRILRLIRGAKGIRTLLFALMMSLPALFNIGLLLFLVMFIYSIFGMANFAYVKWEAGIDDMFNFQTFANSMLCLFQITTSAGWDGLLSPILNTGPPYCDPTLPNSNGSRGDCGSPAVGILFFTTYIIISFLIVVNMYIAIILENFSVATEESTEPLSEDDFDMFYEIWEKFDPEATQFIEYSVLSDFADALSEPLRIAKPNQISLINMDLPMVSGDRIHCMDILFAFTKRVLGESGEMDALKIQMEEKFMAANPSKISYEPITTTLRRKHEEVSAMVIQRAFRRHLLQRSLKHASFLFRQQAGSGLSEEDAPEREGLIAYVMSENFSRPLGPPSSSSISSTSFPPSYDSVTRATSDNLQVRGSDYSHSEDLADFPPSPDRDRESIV
human Nav1.7, sequence (Q15858 whole entry): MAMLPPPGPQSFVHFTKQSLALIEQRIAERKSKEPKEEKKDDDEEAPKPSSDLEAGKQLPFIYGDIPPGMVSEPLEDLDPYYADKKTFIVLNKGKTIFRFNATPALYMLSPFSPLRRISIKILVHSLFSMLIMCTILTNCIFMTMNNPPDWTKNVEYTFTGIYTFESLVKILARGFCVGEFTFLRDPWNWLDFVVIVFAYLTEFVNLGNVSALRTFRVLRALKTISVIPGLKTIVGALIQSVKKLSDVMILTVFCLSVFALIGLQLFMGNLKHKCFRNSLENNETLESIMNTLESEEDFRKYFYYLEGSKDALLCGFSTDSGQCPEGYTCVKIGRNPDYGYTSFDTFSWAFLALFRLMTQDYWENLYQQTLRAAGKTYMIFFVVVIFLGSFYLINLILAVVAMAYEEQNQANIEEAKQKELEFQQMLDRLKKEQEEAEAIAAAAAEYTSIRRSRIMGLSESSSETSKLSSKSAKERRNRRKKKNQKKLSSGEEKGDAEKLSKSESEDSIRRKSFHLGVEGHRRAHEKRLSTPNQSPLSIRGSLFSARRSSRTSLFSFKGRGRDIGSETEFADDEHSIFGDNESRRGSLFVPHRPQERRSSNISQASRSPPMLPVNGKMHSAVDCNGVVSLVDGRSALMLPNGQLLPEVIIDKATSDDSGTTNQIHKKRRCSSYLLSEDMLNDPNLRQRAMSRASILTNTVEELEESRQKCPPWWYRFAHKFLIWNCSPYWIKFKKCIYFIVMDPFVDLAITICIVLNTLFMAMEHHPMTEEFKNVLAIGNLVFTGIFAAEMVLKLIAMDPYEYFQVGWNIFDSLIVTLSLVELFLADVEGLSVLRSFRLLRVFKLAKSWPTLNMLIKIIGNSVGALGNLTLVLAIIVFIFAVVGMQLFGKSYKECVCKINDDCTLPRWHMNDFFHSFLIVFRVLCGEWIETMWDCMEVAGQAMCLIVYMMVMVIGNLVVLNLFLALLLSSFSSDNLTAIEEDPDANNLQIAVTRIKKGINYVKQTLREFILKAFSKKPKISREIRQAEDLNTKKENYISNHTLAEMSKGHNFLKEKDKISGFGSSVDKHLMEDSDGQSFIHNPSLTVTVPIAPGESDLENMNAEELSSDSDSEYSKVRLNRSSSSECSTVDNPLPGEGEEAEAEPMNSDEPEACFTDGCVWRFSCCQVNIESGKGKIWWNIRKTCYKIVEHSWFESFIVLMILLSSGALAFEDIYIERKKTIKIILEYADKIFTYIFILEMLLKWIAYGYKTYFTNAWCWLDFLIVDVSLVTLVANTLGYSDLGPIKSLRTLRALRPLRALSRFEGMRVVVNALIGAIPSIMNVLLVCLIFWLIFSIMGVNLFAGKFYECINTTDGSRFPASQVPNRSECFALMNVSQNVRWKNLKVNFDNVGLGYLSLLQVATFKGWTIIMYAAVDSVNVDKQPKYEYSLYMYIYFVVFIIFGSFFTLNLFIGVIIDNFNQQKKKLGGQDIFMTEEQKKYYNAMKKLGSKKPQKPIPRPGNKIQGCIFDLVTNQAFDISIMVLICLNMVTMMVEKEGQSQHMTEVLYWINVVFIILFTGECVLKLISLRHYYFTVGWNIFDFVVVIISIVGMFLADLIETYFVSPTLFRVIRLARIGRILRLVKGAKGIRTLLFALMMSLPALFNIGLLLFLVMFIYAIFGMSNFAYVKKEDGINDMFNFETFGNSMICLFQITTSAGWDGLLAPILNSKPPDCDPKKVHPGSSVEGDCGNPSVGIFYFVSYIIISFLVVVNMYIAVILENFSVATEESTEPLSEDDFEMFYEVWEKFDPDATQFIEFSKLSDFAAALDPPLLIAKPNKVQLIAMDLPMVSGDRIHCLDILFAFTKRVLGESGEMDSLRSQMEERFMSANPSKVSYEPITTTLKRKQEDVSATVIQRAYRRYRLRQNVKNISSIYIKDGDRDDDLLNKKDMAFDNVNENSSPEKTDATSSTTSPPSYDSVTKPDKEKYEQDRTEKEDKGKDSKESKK
human Nav1.7, sequence (Q07699 19-218 partner): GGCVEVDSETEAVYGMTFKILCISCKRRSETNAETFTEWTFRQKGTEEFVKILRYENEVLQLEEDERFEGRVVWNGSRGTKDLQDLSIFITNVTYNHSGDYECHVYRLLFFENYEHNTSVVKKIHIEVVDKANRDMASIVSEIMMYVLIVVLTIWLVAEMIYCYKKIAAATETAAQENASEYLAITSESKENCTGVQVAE

Row | SMILES | IC50 (human Nav1.5) [nM] | IC50 (human Nav1.7) [nM]
1 | O=C(NC1COc2cccc(Cl)c2C1)c1cn2c(n1)CCC(C(F)(F)F)C2 (stereo not drawn) [Example 8] | ≥ 3000 | < 1000
2 | CCc1ccc2c(c1)C[C@@H](NC(=O)c1cn3c(n1)CCC(C(F)(F)F)C3)CO2 (stereo partly drawn) [Example 11] | ≥ 3000 | < 1000
3 | O=C(NC1COc2ccc(Br)cc2C1)c1cn2c(n1)CCC(C(F)(F)F)C2 (stereo not drawn) [Example 12] | 1000 to 3000 | < 1000
4 | O=C(N[C@H]1COc2ccccc2C1)c1nc2n(c1I)CC(C(F)(F)F)CC2 (stereo partly drawn) [Example 14, N—((R)-chroman-3-yl)-3-iodo-6-(trifluoromethyl)-5,6,7,8-tetrahydroimidazo[1,2-a]pyridine-2-carboxamide] | ≥ 3000 | < 10000
5 | O=C(N[C@H]1COc2ccccc2C1)c1nc2n(c1-c1ccccc1)CCCC2 [Example 16] | < 1000 | < 1000
6 | COc1cccc(-c2c(C(=O)N[C@H]3COc4ccc(Cl)cc4C3)nc3n2CCCC3)n1 [Example 17, (R)—N-(6-chlorochroman-3-yl)-3-(6-methoxypyridin-2-yl)-5,6,7,8-tetrahydroimidazo[1,2-a]pyridine-2-carboxamide] | 1000 to 3000 | < 1000
7 | O=C(N[C@H]1COc2ccc(C(F)(F)F)cc2C1)c1nc2n(c1-c1ccn[nH]1)CCCC2 [Example 19] | < 1000 | < 1000
8 | O=C(N[C@H]1COc2ccc(COCC(F)(F)F)cc2C1)c1nc2n(c1-c1ccn[nH]1)CCCC2 [Example 20] | < 1000 | < 1000
9 | O=C(NCCc1cccc(C(F)(F)F)c1)c1nc2n(c1-c1ccccc1)CCCC2 [Example 22] | ≥ 3000 | < 10000
10 | CCC1CCc2nc(C(=O)N[C@H]3COc4ccccc4C3)cn2C1 (stereo partly drawn) [Example 23] | ≥ 3000 | < 10000
11 | O=C(N[C@H]1COc2ccccc2C1)c1nc2n(c1Cl)CC(c1ccccc1)CC2 (stereo partly drawn) [Example 25] | 1000 to 3000 | < 10000
12 | COc1ncccc1C1CCc2nc(C(=O)N3CCC(c4ccccc4)C3)cn2C1 (stereo not drawn) [Example 26] | ≥ 3000 | < 10000
13 | COc1cccc(C2CCc3nc(C(=O)N[C@H]4COc5ccccc5C4)cn3C2)n1 (stereo partly drawn) [Example 27] | < 1000 | < 1000
14 | COc1cccc(OC2CCN(C(=O)c3cn4c(n3)CCC(C3CCCC3)C4)C2)n1 (stereo not drawn) [Example 28] | ≥ 3000 | < 10000
15 | O=C(c1cn2c(n1)CCC(CCc1ccccc1)C2)N1CCC(Oc2ccccn2)C1 (stereo not drawn) [Example 29] | 1000 to 3000 | < 10000
16 | O=C(c1cn2c(n1)CCC(c1cccnc1C(F)(F)F)C2)N1CCC1Cc1ccccc1 (stereo not drawn) [Example 30] | ≥ 3000 | < 10000
17 | COc1ncc(C(F)(F)F)cc1C1CCc2nc(C(=O)N3CCOC(c4ccc(F)cc4F)C3)cn2C1 (stereo not drawn) [Example 32] | 1000 to 3000 | < 10000
18 | O=C(N[C@H]1COc2ccccc2C1)c1cn2c(n1)CCC(COc1ccccc1)C2 (stereo partly drawn) [Example 33] | 1000 to 3000 | < 1000
19 | CC(C)(C)OCC1CCc2nc(C(=O)N[C@H]3COc4ccccc4C3)cn2C1 (stereo partly drawn) [Example 34] | ≥ 3000 | < 10000
20 | O=C(N[C@H]1COc2ccccc2C1)c1cn2c(n1)CCC(C1(F)CCC1)C2 (stereo partly drawn) [Example 35] | 1000 to 3000 | < 1000
21 | CC(C)(C)C1CCc2nc(C(=O)N[C@H]3COc4ccccc4C3)cn2C1 (stereo partly drawn) [Example 36] | ≥ 3000 | < 1000
22 | O=C(N[C@H]1COc2ccc(Cl)cc2C1)c1cn2c(n1)CCC(OCC(F)(F)F)C2 (stereo partly drawn) [Example 38] | ≥ 3000 | < 10000
23 | CC(C)COC1CCc2nc(C(=O)N[C@H]3COc4ccccc4C3)cn2C1 (stereo partly drawn) [Example 41] | ≥ 3000 | < 10000
24 | Cc1ccc(C2Cn3cc(C(=O)N[C@H]4COc5ccccc5C4)nc3CN2)s1 (stereo partly drawn) [Example 43] | ≥ 3000 | < 10000

Row | SMILES | IC50 (human Nav1.5) [nM] | IC50 (human Nav1.7) [nM]
25 | O=C(N[C@H]1COc2ccccc2C1)c1cn2c(n1)CNC(c1cccc(C(F)(F)F)n1)C2 (stereo partly drawn) [Example 46] | 1000 to 3000 | < 10000
26 | CN1Cc2nc(C(=O)N[C@H]3COc4cccc(F)c4C3)cn2CC1c1cccc(C(F)(F)F)n1 (stereo partly drawn) [Example 47] | ≥ 3000 | < 10000
27 | CC(C)CCC1Cn2cc(C(=O)N[C@H]3COc4ccccc4C3)nc2CN1 (stereo partly drawn) [Example 49] | ≥ 3000 | < 10000
28 | O=C(N[C@H]1COc2ccccc2C1)c1cn2c(n1)CNC(CCC1CCCC1)C2 (stereo partly drawn) [Example 51] | 1000 to 3000 | < 1000
29 | CN1Cc2nc(C(=O)N[C@H]3COc4ccccc4C3)cn2CC1CCC1CCCC1 (stereo partly drawn) [Example 52] | 1000 to 3000 | < 1000
30 | O=C(N[C@H]1COc2ccccc2C1)c1cn2c(n1)CNC(CCCc1ccccc1)C2 (stereo partly drawn) [Example 55] | 1000 to 3000 | < 1000
31 | CN1Cc2nc(C(=O)NC3COc4ccccc4C3)cn2CC1c1ccccc1 (stereo not drawn) [Example 57] | < 1000 | < 1000
32 | CN1Cc2nc(C(=O)NCCc3ccccc3)cn2CC1c1ccccc1 (stereo not drawn) [Example 58] | ≥ 3000 | < 10000
33 | O=C(N[C@H]1COc2ccccc2C1)c1cn2c(n1)CNC(C1CCCC1)C2 (stereo partly drawn) [Example 59] | ≥ 3000 | < 10000
34 | CN1Cc2nc(C(=O)NCCc3cccc(N4CCOCC4)c3)cn2CC1c1ccccc1 (stereo not drawn) [Example 62] | ≥ 3000 | < 10000
35 | O=C(N[C@H]1COc2ccccc2C1)c1nc2n(c1-c1ccccc1)CCOC2 [Example 64] | < 1000 | < 10000
36 | COc1cccc(-c2c(C(=O)N[C@H]3COc4ccc(Cl)cc4C3)nc3n2CCOC3)n1 [Example 65] | < 1000 | < 1000
37 | O=C(N[C@H]1COc2ccc(Cl)cc2C1)c1nc2n(c1-c1ccccn1)CCOC2 [Example 66] | < 1000 | < 10000
38 | O=C(N[C@H]1COc2ccc(C(F)(F)F)cc2C1)c1nc2n(c1-c1ccccn1)CCOC2 [Example 67] | < 1000 | < 1000
39 | Cc1ccccc1C1CCn2nc(C(=O)N[C@H]3COc4ccccc4C3)cc2C1 (stereo partly drawn) [Example 68] | ≥ 3000 | < 10000
40 | O=C(N[C@H]1COc2ccc(Br)cc2C1)c1cc2n(n1)CCC(c1ccccc1F)O2 (stereo partly drawn) [Example 71] | < 1000 | < 1000
41 | N#Cc1ccc2c(c1)C[C@@H](NC(=O)c1cc3n(n1)CCC(c1ccccc1C#N)O3)CO2 (stereo partly drawn) [Example 72] | ≥ 3000 | < 1000
42 | COc1ncccc1C1CCn2nc(C(=O)N[C@H]3COc4ccc(C#N)cc4C3)cc2O1 (stereo partly drawn) [Example 75] | ≥ 3000 | < 1000
43 | CCc1ccc2c(c1)C[C@@H](NC(=O)c1cc3n(n1)CCC(c1ccccc1F)O3)CO2 (stereo partly drawn) [Example 76] | ≥ 3000 | < 1000
44 | O=C(NC1COc2cccc(Cl)c2C1)c1cc2n(n1)CCC(c1ccccc1)O2 (stereo not drawn) [Example 77] | ≥ 3000 | < 1000
45 | O=C(NC1COc2cccc(OC(F)(F)F)c2C1)c1cc2n(n1)CCC(c1ccccc1)O2 (stereo not drawn) [Example 78] | ≥ 3000 | < 10000
46 | CCOc1cccc(CCNC(=O)c2cc3n(n2)CCC(c2ccccc2)O3)c1 (stereo not drawn) [Example 79] | ≥ 3000 | < 10000
47 | O=C(N[C@H]1COc2ccc(-c3ccncc3)cc2C1)c1cc2n(n1)CCC(c1ccccc1F)O2 (stereo partly drawn) [Example 80] | ≥ 3000 | < 1000
48 | O=C(N[C@H]1COc2ccc(-c3ccccn3)cc2C1)c1cc2n(n1)CCC(c1ccccc1F)O2 (stereo partly drawn) [Example 81] | ≥ 3000 | < 1000
